{"source": "patent US20070202185A1", "about": "“Microencapsulated Delivery Vehicles Having Fugitive Layers” (KIMBERLY-CLARK WORLDWIDE, INC., priority 2005, published 2007)", "system": "Methicillin-resistant Staphylococcus aureus", "settings": "0.005% PHMB versus no PHMB", "procedure": "This Example utilized 1.5-milliliter tubes containing a 1-milliliter blend of phosphate-buffered saline (pH 7.2) and 5% (w/v) bovine serum albumin soil. The tubes were placed in electric heat blocks set for 22° C., 30° C., 40° C. and 50° C., respectively. The tubes remained in the electric heat blocks for approximately 10 minutes.\nAfter 10 minutes, 0.005% (by weight) active polyhexamehtylene biguanide (PHMB) (commercially available as Cosmocil® CQ from Arch Biocides, Inc., United Kingdom) was added to two tubes at each temperature level. Duplicate tubes without PHMB at each temperature were also made.\nThe tubes were then vortexed and Methicillin-resistant Staphylococcus aureus (approximately 1×10^5 colony forming units (CFU)) was then added to each tube. All of the tubes were then placed back into the heat blocks at their respective temperatures.\nFollowing a 10-minute contact time, 0.1 milliliters of each sample was transferred to 0.9 milliliters letheen broth to neutralize the PHMB activity. The letheen samples were then plated in duplicate on Tryptic Soy agar plates using a WASP2 spiral plater (commercially available from Don Whitley Scientific, Ltd., Yorkshire, United Kingdom). The plates were inverted and incubated at 37±2° C. for 48 hours.\nAfter 48 hours, the plates were evaluated using a total plate count to determine the biocidal efficacy of each sample.", "note": "Like-named read-outs stand apart in the source and are kept apart here."}
{"substance": "polyhexamethylene biguanide [PHMB]", "values": [{"measurement": "LOG10 Reduction", "setting": "22° C.", "value": 2.1}, {"measurement": "LOG10 Reduction", "setting": "30° C.", "value": 2.8}, {"measurement": "LOG10 Reduction", "setting": "40° C.", "value": 3.5}, {"measurement": "LOG10 Reduction", "setting": "50° C.", "value": ">3.5"}]}
